# Test results reported in US11154519B2, “Inhibitors and their uses” (MEDICAL RESEARCH COUNCIL, priority 2015, dated 2021).
# Legend:
# PPP1R15A-PP1 complex = target: T1, PPP1R15A-PP1 complex (Homo sapiens, UniProt O75807); experiment: SPR steady-state binding to R15A-PP1 holophosphatase; conditions: SPR steady-state, MBP-R15A325-636-His captured on bio-PP1c, 10° C.; read-out: R15A (KD)
# T1 construct: cDNAs encoding amino acids 325-636 of PPP1R15A and 340-698 of PPP1R15B were His-tagged and cloned into pMAL-c5x; made in house; host or cells: R15A: E. coli BL21-Gold (pMAL-c5x); PP1γ: Sf9 insect cells (baculovirus, pDW464)
# Procedure: (§1) PPP1R15A^325-636 and PPP1R15B^340-698 were expressed and purified as follows: the cDNAs encoding amino acids 325-636 of PPP1R15A and 340-698 of PPP1R15B were His-tagged and cloned into pMAL-c5x. Recombinant PPP1R15A/B were expressed in BL21-Gold cells and purified by affinity chromatography on a HisTrap HP column (GE Healthcare), followed by a MBPTrap HP column (GE Healthcare). The proteins were analyzed on BOLT SDS-PAGE 4-12% Bis-Tris gels (Life Technologies) stained with SimplyBlue SafeStain (Life Technologies). cDNA encoding for human PP1γ was cloned into the baculovirus transfer vector pDW464 to add a biotin acceptor peptide (BAP). The vector also encodes for the E. coli biotin holoenzyme synthetase (BirA), so that BAP-tagged proteins can be biotinylated in vivo in Spodoptere frugiperda (Sf9) insect cells (Duffy et al., Anal. Biochem., 262, 122-128, 1998). The Bac-to-Bac baculovirus expression system (Life Technologies) was used to generate the recombinant bacmid DNA and Sf9 insect cells were used to amplify the viral stocks Cultures were harvested by centrifuging at 1,200 g for 15 minutes, cell pellets were resuspended in lysis buffer (50 mM Tris pH 7.4, 150 mM NaCl, 0.2% Triton, 5% Glycerol, 1 PiC tablet (Roche) per 50 ml and 0.2 mM PMSF) and followed by gentle sonication. The protein was first purified on a 5 ml HiTrap Q HP column (GE Healthcare) followed by a HiLoad 16/600 Superdex 200 column (GE Healthcare). The positive fractions confirmed by SDS-PAGE and western blot were pooled, concentrate to ˜1 μM and stored at −80° C.
# (§2) A Biacore T200 (GE Healthcare) system was used for all experiments and biotinylated PP1 was captured using a Sensor Chip SA (GE Healthcare, catalog no BR-1005-31). The streptavidin coated surface was activated by 1 min injection with a solution of 50 mM NaOH and 1 M NaCl. Biotin-PP1 was diluted in the running buffer (50 mM Tris pH 7.5, 100 mM NaCl, 0.1 mM EGTA, 1 mM MnCl2, 0.05% Tween 20) and injected at approximately 300 nM concentration directly to streptavidin coated surface for 100 sec or to reach immobilization level of biotin-PP1 corresponding to ˜7000 RU. A blank immobilization was performed for one of the SA sensor chip surface to use as a reference.
# (§3) With minor deviations, the same procedure and conditions were used in all binding experiments. Small molecules were stored as 50 mM stock solutions in 100% DMSO. Prior to determining binding constants, serial dilutions of either 12 or 8 concentrations of the compounds were prepared in the running buffer in a 96-well plate. Prior to each compound dilution series the regulatory subunit, R15A or R15B, was diluted to […] in the running buffer and captured on the biotin-PP1 surface, to form the holophosphatase complex on the sensor chip surface. Then, without regenerating the surface, the compound dilution series was injected onto the surface of the chip Sensorgrams were analyzed using the Biacore T200 evaluation software and the binding constants determined based on a steady-state model. Kinetic experiments are carried out using different concentrations of the compound and their respective equilibrium binding levels determined.
# (§4) Surface Plasmon Resonance (SPR) was used to measure the binding affinity of compounds to the PPP1R15A/B-PP1 phosphatase complex. Biotin acceptor peptide (BAP) was fused to the N-terminus of PP1γ, which enables the biotinylation of the BAP-tagged protein in Sf9 insect cells. After purification the BAP-PP1γ protein was captured on a streptavidin sensor chip (SA-chip, GE healthcare) to a response level of ˜5.000 RU. Using controlled biotinylation enables orientated and uniform immobilization on the sensor chip surface. The PP1γ was then used to capture PPP1R15A/B and form a holophosphatase complex on the surface of the streptavidin chip. This complex can then be used to test binding of compounds. 10 μM PPP1R15A/B protein concentration was used to form the holophosphatase complex during a 80 s injection. […]
# PPP1R15B-PP1 = target: T2, PPP1R15B-PP1 (Homo sapiens, UniProt Q5SWA1); experiment: SPR steady-state binding to R15B-PP1 holophosphatase; conditions: SPR steady-state, MBP-R15B340-698-His captured on bio-PP1c, 10° C.; read-out: R15B (KD)
# T2 construct: cDNAs encoding amino acids 325-636 of PPP1R15A and 340-698 of PPP1R15B were His-tagged and cloned into pMAL-c5x; made in house; host or cells: R15B: E. coli BL21-Gold (pMAL-c5x); PP1γ: Sf9 insect cells (baculovirus, pDW464)
# Procedure: as §1, §2, §3, §4
# PP1 = target: T3, PP1 (Homo sapiens, UniProt P36873); experiment: SPR binding to PP1 alone; conditions: SPR steady-state, bio-PP1c surface
# T3 construct: made in house; host or cells: Sf9 insect cells (baculovirus, pDW464)
# R15A or R15B = experiment: Selective binding towards R15A or R15B (based on SPR); parameters: species or system human
# Procedure: In one embodiment, the compounds of formula IB inhibit PPP1R15A and PPP1R15B. Inhibition of PPP1R15A and PPP1R15B can be determined from binding analysis. For example, binding can be analysed using SPR (surface plasmon resonance) to obtain KD values. A PPP1R15A and PPP1R15B inhibitor may be defined as a compound where the difference in KD values between R15A and R15B is no more than about 3 fold.
# Small molecules were stored as 50 mM stock solutions in 100% DMSO. Prior to determining binding constants, serial dilutions of either 12 or 8 concentrations of the compounds were prepared in the running buffer in a 96-well plate. Prior to each compound dilution series the regulatory subunit, MBP-R15A^325-636-His or MBP-R15B^340-698-His, was diluted to 10 μM in the running buffer and captured on the bio-PP1c surface at a flow rate of 30 μl/min for 1 minute to form the holophosphatase complex on the sensor chip surface. This was followed by 1 minute stabilization period, to wash off any unspecific binding. Then, without regenerating the surface, the compound dilution series was injected onto the surface of the chip at a flow rate of 30 μl/min for 1 minute, followed by 2 minutes dissociation time. After each dilution series the surface was regenerated using 3 M NaCl for 90 seconds. After regeneration, SPR responses generally returned to base levels and the bio-PP1c surface was ready for the next compound dilution series. In order to be able to correct for small variations in DMSO concentration between samples, eight solvent samples ranging from 0.06 to 8% DMSO were injected every 50th cycle. The flow cell temperature was 10° C.
# Sensorgrams were analyzed using the Biacore T200 evaluation software and the binding constants determined based on a steady-state model. Kinetic experiments are carried out using different concentrations of the compound and their respective equilibrium binding levels determined.
# HeLa cells [1] = experiment: Cytoprotection against ER stress (tunicamycin), IncuCyte; type: cell-based; conditions: Homo sapiens, 250 ng/ml Tunicamycin, 72 hours, compound 0-20 μM, read-out: Cytoprotection from Tm (compared to GNB)
# Procedure: (§5) HeLa cells (40,000 cells/ml) were plated in a 96-well plate and treated with different concentrations (0-20 μM) of a compound as indicated in the presence of 250 ng/ml Tunicamycin for 72 hours. To monitor cell death 1/2000 dilution of the CellTox green dye (Promega) was added to the media. The growth of the cells was monitored over time and pictures taken every 2 hours with the IncuCyte ZOOM system and analysed by the IncuCyte ZOOM software (Essen BioScience). […] Cytoprotection against ER stress can be measured by a suitable assay. In this instance, cytoprotection was measured in HeLa cells in which ER stress was elicited by the addition of media containing tunicamycin, a drug that blocks N-glycosylation, thereby preventing protein folding and inducing the unfolded protein response. Cell viability was then detected in the presence and absence of a compound listed in Table 1 after a set period of time, by monitoring cell growth over time. Cytoprotection from ER stress was measured in terms of the percentage increase in viable cells (relative to control) after ER stress.
# HeLa cells [2] = experiment: Cell death dose response (CellTox green, IncuCyte); type: cell-based; conditions: for Effect on cell death: IncuCyte, 0-20 μM
# Procedure: Toxicity of the compounds is assessed using Cell viability Counting Kit-8 (Dojindo) or in a Incucyte (Essenbioscience) using both phase contrast and IncuCyte™ Cytotox Green Reagent.
# as §5
# EC50 were extrapolated from dose response experiments on cell death. Data from IncuCyte was plotted and analysed in Prism. The “% of cell death” for each data point. For each concentration there is a % of cell death vs time, the area under the curve was taken and plotted against log conc=>EC50 (analysis in Prism).
# protein synthesis [3] = experiment: Assessment of translation rates (35S-methionine labelling); type: cell-based
# Procedure: Cells (90,000 cells/ml) were plated in 12-well plates, treated as indicated, labelled with 100 μCi/mI 35S-methionine (Hartmann Analytic) for 10 minutes at 37° C., washed with ice-cold PBS and lysed in 120 μl Laemmli Buffer. Lysates were boiled at 95° C. for 5 minutes, sonicated and resolved on 4-12% Bolt Bis-Tris Plus Gels (Thermo Fisher Scientific). Gels were then stained with InstantBlue (Expedeon) and analyzed by phosphorimaging and quantified using ImageJ.
# By monitoring translation rates as described above, the activities of R15A, R15B and R15A/B inhibitors can be defined as follows (also shown in FIG. 12). An R15A inhibitor has no effect on translation in unstressed cells but prolongs translation attenuation following stress. A selective R15B inhibitor transiently attenuate protein synthesis because R15A compensates for the inhibition of R15B.
# mice = experiment: Side effects of Guanabenz: activity of mice after dosing; type: in vivo; conditions: 10 mg/kg oral gavage
# Procedure: To assess whether of a compound of Example 1 had the side effects of Guanabenz, mice (n>3) were gavaged orally with 10 mg/kg of compound or Guanabenz. Their activity was monitored 30 minutes following dosing.
# In humans, the adrenergic agonist activity of Guanabenz has side effects including drowsiness and coma at high doses (A. H. Hall, Ann Intern Med 102; 787-788; 1985). Due to of these side effects, Guanabenz is no longer used in human. It is anticipated that Guanabenz derivatives have the side effects of Guanabenz, associated with alpha-2 adrenergic activity.
# protein synthesis [4] = conditions: unstressed cells; Tsaytler et al., Science 2011; cited from earlier work
# T1 sequence (O75807 325-636): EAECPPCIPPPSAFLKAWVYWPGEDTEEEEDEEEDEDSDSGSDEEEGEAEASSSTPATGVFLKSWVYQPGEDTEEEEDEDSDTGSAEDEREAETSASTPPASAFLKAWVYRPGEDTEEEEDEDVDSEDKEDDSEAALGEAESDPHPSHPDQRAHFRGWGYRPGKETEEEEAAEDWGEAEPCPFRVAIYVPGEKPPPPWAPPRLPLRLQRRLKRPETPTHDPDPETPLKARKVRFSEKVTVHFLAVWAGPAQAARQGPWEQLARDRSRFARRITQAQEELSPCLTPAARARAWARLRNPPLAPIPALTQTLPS
# T1 sequence (P36873 whole entry partner, the tested form may be a part): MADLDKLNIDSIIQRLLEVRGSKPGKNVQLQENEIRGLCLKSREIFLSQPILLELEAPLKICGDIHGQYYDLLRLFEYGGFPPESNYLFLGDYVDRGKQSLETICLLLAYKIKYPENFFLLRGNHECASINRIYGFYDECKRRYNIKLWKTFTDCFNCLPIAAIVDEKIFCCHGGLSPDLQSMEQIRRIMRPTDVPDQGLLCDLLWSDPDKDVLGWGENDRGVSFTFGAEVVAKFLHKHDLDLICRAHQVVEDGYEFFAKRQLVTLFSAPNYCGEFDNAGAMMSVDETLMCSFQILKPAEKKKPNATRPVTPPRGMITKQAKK
# T2 sequence (Q5SWA1 340-698): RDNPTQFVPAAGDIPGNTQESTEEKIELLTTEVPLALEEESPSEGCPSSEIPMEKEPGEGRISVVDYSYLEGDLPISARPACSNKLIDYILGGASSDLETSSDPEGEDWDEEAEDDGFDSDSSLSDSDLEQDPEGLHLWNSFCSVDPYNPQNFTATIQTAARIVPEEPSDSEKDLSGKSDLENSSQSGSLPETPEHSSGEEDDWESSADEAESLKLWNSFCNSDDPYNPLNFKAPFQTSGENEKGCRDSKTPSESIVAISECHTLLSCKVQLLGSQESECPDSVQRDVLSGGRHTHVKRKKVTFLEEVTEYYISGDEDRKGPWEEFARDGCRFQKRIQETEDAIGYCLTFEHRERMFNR
# T2 sequence (P36873 whole entry partner, the tested form may be a part): as the sequence (P36873 whole entry partner, the tested form may be a part) above
# T3 sequence (P36873 whole entry): as the sequence (P36873 whole entry partner, the tested form may be a part) above
Structure (SMILES),Kd (PPP1R15A-PP1 complex),Kd (PPP1R15B-PP1),Kd (PP1),Selective binding towards R15A or R15B (based on SPR) (R15A or R15B),Emax (HeLa cells [1]),Effect on cell death (HeLa cells [2]),Effect on translation (protein synthesis [3]; 35S-methionine labelling of cells),Effect on translation ⇒ Inhibits (protein synthesis [3]; target(s) concluded to be inhibited),"protein synthesis rates (protein synthesis [3]; unstressed cells, 10 μM, FIG. 12)",activity of mice 30 minutes following dosing (mice),protein synthesis (protein synthesis [4]),"EC50 (HeLa cells [2]; Homo sapiens, area under % cell death vs time curve against log conc, read-out: Effect on cell death ⇒ EC50)"
"[H]/N=C(\N)NN=Cc1cccc(F)c1Cl [Compound 25, (E)-2-(2-chloro-3-fluorobenzylidene)hydrazine-1-carboximidamide]",6.18 ± 3.31 µM,9.22 ± 0.19 µM,3.65 µM,R15AB (A PPP1R15A and PPP1R15B inhibitor may be defined as a compound where the difference in KD values between R15A and R15B is no more than about 3 fold),54%,No,–,–,–,–,–,–
"[H]/N=C(\N)NN=Cc1cc(F)c(F)cc1Cl [Compound 32, (E)-2-(2-chloro-4,5-difluorobenzylidene)hydrazine-1-carboximidamide]",4.82 ± 0.26 µM,17.3 µM,–,–,100%,No,Persistent,–,–,–,–,–
"[H]/N=C(\N)NN=Cc1ccc(F)c(F)c1Cl [Compound 27, (E)-2-(2-chloro-3,4-difluorobenzylidene)hydrazine-1-carboximidamide]",10.6 µM,–,–,–,57%,No,–,R15AB,–,–,–,–
"N=C(N)N/N=C/c1cc(Cl)c(Cl)cc1Cl [Compound 4, (E)-2-(2,4,5-trichlorobenzylidene)hydrazine-1-carboximidamide]",0.457 ± 0.13 µM,0.022 ± 0.02 µM,332 µM,R15AB (A PPP1R15A and PPP1R15B inhibitor may be defined as a compound where the difference in KD values between R15A and R15B is no more than about 3 fold),80%,No,–,–,–,–,–,–
"N=C(N)N/N=C/c1c(Cl)cccc1Cl [Guanabenz, reference compound]",–,–,–,–,–,–,–,–,doesn't inhibit protein synthesis in unstressed cell,did not move 30 minutes after dosing,doesn't inhibit protein synthesis in untressed cells,–
"[H]/N=C(\N)NN=Cc1cnc(Cl)nc1Cl [Compound 2, (E)-2-((2,4-dichloropyrimidin-5-yl)methylene)hydrazine-1-carboximidamide]",46.4 ± 18.3 µM,9.22 µM,–,R15B (A “selective inhibitor” may be defined as a compound where the difference in KD values between R15A and R15B is greater than 3 fold),0%,Yes,–,–,–,–,–,7.71 µM
